Patent US20250230147A1, “LACTAMS AS CBL-B INHIBITORS” (Genentech, Inc., priority 2021, published 2025)
pIC50: −log10 of the molar value. Counter-ions that a name gives are not always drawn.

Key:
c-Cbl = c-Cbl (Homo sapiens (Human), UniProt P22681); experiment: C-Cbl LCK Ub TR-FRET assay (c-cbl Lck HTRF); assay type: biochemical; details: for (fold-selectivity): C-cbl Lck HTRF IC50 relative to Cbl-b Lck HTRF IC50
Procedure, shortened: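 After the ubiquitination reaction, detection mixture was added and plates incubated 20 min at room temperature before reading. IC50 values were calculated with wells lacking LCK as the low control and DMSO as the high control.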

Cbl-b = Cbl-b (Homo sapiens (Human), UniProt Q13191); experiment: Cbl-b LCK Ub TR-FRET assay (Cbl-b Lck HTRF); assay type: biochemical
Procedure, shortened: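 Biotin-Cbl-b preincubated with compound (10-point 3-fold series) 60 min, then His-LCK with 1 mM ATP (2× mixture) added for 90 min at room temperature. Ubiquitination detected by TR-FRET using HA-ubiquitin/UBE2D2 adduct, anti-HA-D2 and streptavidin-Eu; IC50 normalised to no-LCK and DMSO controls.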

c-Cbl, sequence (P22681 47-435): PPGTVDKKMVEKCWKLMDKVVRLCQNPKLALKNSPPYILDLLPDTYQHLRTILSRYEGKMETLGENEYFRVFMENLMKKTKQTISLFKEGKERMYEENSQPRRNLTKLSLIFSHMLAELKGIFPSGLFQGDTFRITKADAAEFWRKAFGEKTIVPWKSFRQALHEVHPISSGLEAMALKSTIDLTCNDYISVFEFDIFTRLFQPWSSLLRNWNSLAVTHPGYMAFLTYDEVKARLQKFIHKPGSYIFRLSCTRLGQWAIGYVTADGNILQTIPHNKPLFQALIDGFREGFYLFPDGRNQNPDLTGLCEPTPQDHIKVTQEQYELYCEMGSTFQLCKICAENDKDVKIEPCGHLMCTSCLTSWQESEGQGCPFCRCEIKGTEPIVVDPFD
Cbl-b, sequence (Q13191 40-426): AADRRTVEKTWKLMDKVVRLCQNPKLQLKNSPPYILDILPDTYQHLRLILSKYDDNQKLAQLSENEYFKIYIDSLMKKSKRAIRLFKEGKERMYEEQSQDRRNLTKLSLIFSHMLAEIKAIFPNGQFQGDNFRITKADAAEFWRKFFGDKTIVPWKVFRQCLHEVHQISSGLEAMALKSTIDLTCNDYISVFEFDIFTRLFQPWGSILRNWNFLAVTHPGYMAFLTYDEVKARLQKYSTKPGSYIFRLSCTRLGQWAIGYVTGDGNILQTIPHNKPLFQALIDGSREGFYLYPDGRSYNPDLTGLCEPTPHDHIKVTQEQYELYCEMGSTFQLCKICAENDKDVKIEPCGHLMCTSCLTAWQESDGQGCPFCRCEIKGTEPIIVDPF

Row | SMILES | pIC50 (c-Cbl) | (fold-selectivity) (c-Cbl) | pIC50 (Cbl-b)
1 | Cn1cnnc1[C@@H](F)[C@@](C)(F)c1cccc(N2Cc3c(cc(CN4CC(C)(F)C4)cc3C(F)(F)F)C2=O)c1 [Compound 32, 2-(3-((1 R,2S)-1,2-difluoro-1-(4-methyl-4H-1,2,4-triazol-3-yl)propan-2-yl)phenyl)-6-((3-fluoro-3-methylazetidin-1-yl)methyl)-4-(trifluoromethyl)isoindolin-1-one] | 4.96 | 2.5x | 5.35
2 | CC(=O)N1CCN(Cc2cc3c(c(C(F)(F)F)c2)CN(c2cccc(C4([C@@H](F)c5nncn5C)COC4)c2)C3=O)[C@@H](C(C)C)C1 [Compound 193, 6-(((S)-4-acetyl-2-isopropylpiperazin-1-yl)methyl)-2-(3-(3-((R)-fluoro(4-methyl-4H-1,2,4-triazol-3-yl)methyl)oxetan-3-yl)phenyl)-4-(trifluoromethyl)isoindolin-1-one] | 6.72 | 2.6x | 7.14
3 | CN1C[C@@H]2C[C@H]1CN2Cc1cc2c(c(C(F)(F)F)c1)CN(c1cccc(C3(Cc4nncn4C)CC(F)(F)C3)c1)C2=O [Compound 414, 2-(3-(3,3-difluoro-1-((4-methyl-4H-1,2,4-triazol-3-yl)methyl)cyclobutyl)phenyl)-6-(((1S,4S)-5-methyl-2,5-diazabicyclo[2.2.1]heptan-2-yl)methyl)-4-(trifluoromethyl)isoindolin-1-one] | 7.17 | (0.77x) | 7.06
4 | Cn1cnnc1[C@H](F)C1(c2cccc(N3Cc4c(cc(CN5CC(C)(CF)C5)cc4C(F)(F)F)C3=O)c2)COC1 [Compound 76, (R)-2-(3-(3-(fluoro(4-methyl-4H-1,2,4-triazol-3-yl)methyl)oxetan-3-yl)phenyl)-6-((3-(fluoromethyl)-3-methylazetidin-1-yl)methyl)-4-(trifluoromethyl)isoindolin-1-one] | 7.09 | 1.6x | 7.28
5 | CN(C)CCNc1cc(C2(Cc3nncn3C)CCC2)cc(N2Cc3c(cc(CNC4(C)CCC4)cc3C(F)(F)F)C2=O)n1 [Compound 337, 2-(6-((2-(dimethylamino)ethyl)amino)-4-(1-((4-methyl-4H-1,2,4-triazol-3-yl)methyl)cyclobutyl)pyridin-2-yl)-6-(((1-methylcyclobutyl)amino)methyl)-4-(trifluoromethyl)isoindolin-1-one] | 5.96 | (0.45x) | 5.62
6 | Cn1cnnc1C[C@]1(c2cccc(N3Cc4c(cc(CNC5(C)CCC5)cc4C(F)(F)F)C3=O)c2)C[C@H](C#N)C1 [Compound 467, (1r,3r)-3-((4-methyl-4H-1,2,4-triazol-3-yl)methyl)-3-(3-(6-(((1-methylcyclobutyl)amino)methyl)-1-oxo-4-(trifluoromethyl)isoindolin-2-yl)phenyl)cyclobutanecarbonitrile] | 7.96 | (0.89x) | 7.92
7 | Cn1cnnc1[C@H](F)C1(c2cccc(N3Cc4c(cc([C@H](N)C5CC5)cc4C(F)(F)F)C3=O)c2)COC1 [Compound 54, 6-((R)-amino(cyclopropyl)methyl)-2-(3-(3-((R)-fluoro(4-methyl-4H-1,2,4-triazol-3-yl)methyl)oxetan-3-yl)phenyl)-4-(trifluoromethyl)isoindolin-1-one] | 7.34 | 1.6x | 7.54
8 | Cn1cnnc1CC1(c2cccc(N3Cc4c(cc(CNCC(C)(C)C)cc4C(F)(F)F)C3=O)c2)CC(F)(F)C1 [Compound 363, 2-(3-(3,3-difluoro-1-((4-methyl-4H-1,2,4-triazol-3-yl)methyl)cyclobutyl)phenyl)-6-((neopentylamino)methyl)-4-(trifluoromethyl)isoindolin-1-one] | 8.02 | (0.75x) | 7.89
9 | Cn1cnnc1CC1(c2cccc(N3Cc4c(cc(CNC56CC(C)(C5)C6)cc4C(F)(F)F)C3=O)c2)CC(F)(F)C1 [Compound 354, 2-(3-(3,3-difluoro-1-((4-methyl-4H-1,2,4-triazol-3-yl)methyl)cyclobutyl)phenyl)-6-(((3-methylbicyclo[1.1.1]pentan-1-yl)amino)methyl)-4-(trifluoromethyl)isoindolin-1-one formate] | 8.15 | – | 7.89
10 | Cl.Cn1cnnc1CC1(c2cc(NCc3ccncc3)nc(N3Cc4c(cc(CNC5(C)CCC5)cc4C(F)(F)F)C3=O)c2)CCC1 [Compound 380, 2-(4-(1-((4-methyl-4H-1,2,4-triazol-3-yl)methyl)cyclobutyl)-6-((pyridin-4-ylmethyl)amino)pyridin-2-yl)-6-(((1-methylcyclobutyl)amino)methyl)-4-(trifluoromethyl)isoindolin-1-one hydrochloride] | 7.00 | (101x) | 7.05
11 | Cn1cnnc1CC1(c2cc(N[C@H]3CC[C@@H](N)CC3)nc(N3Cc4c(cc(CNC5(C)CCC5)cc4C(F)(F)F)C3=O)c2)CCC1 [Compound 306, 2-(6-(((1s,4s)-4-aminocyclohexyl)amino)-4-(1-((4-methyl-4H-1,2,4-triazol-3-yl)methyl)cyclobutyl)pyridin-2-yl)-6-(((1-methylcyclobutyl)amino)methyl)-4-(trifluoromethyl)isoindolin-1-one] | 7.05 | (1.2x) | 7.12
12 | CN1CCN(Cc2cc3c(c(C(F)(F)F)c2)CN(c2cccc(C4(Cc5nncn5C)CC(F)(F)C4)c2)C3=O)[C@@H](C2CC2)C1 [Compound 402, (S)-6-((2-cyclopropyl-4-methylpiperazin-1-yl)methyl)-2-(3-(3,3-difluoro-1-((4-methyl-4H-1,2,4-triazol-3-yl)methyl)cyclobutyl)phenyl)-4-(trifluoromethyl)isoindolin-1-one] | 7.34 | (1.2x) | 7.41
13 | CN(C)C(=O)CNc1cc(C2(Cc3nncn3C)CCC2)cc(N2Cc3c(cc(CNC4(C)CCC4)cc3C(F)(F)F)C2=O)n1 [Compound 311, N,N-dimethyl-2-((4-(1-((4-methyl-4H-1,2,4-triazol-3-yl)methyl)cyclobutyl)-6-(6-(((1-methylcyclobutyl)amino)methyl)-1-oxo-4-(trifluoromethyl)isoindolin-2-yl)pyridin-2-yl)amino)acetamide formate] | 6.85 | – | 6.96
14 | Cn1cnnc1CC1(c2cccc(N3Cc4c(cc(CN)cc4C(F)(F)F)C3=O)c2)COC1 [Compound 66, 6-(aminomethyl)-2-(3-(3-((4-methyl-4H-1,2,4-triazol-3-yl)methyl)oxetan-3-yl)phenyl)-4-(trifluoromethyl)isoindolin-1-one formate] | 7.00 | – | 7.12
15 | Cn1cnnc1CC1(c2cccc(N3Cc4c(cc(CN5Cc6c[nH]nc6C5)cc4C(F)(F)F)C3=O)c2)CC(F)(F)C1 [Compound 105, 2-(3-(3,3-difluoro-1-((4-methyl-4H-1,2,4-triazol-3-yl)methyl)cyclobutyl)phenyl)-6-((2,6-dihydropyrrolo[3,4-c]pyrazol-5(4H)-yl)methyl)-4-(trifluoromethyl)isoindolin-1-one] | 7.60 | 0.93x | 7.59
